# Source: patent US20230414596A1 (PRILENIA NEUROTHERAPEUTICS LTD., priority 2020, published 2023)
# “And” between values parts separate entries of the source, which are not always exact repeats. Equal entries are not always repeated. Where two headings read alike, the source gives them in different places.
# What was measured:
# Sigma-2 receptor (S2R) = Sigma-2 receptor (S2R) (Homo sapiens (Human), UniProt Q5BJF2); assay: Sigma-2 receptor in-vitro binding assay
# [1] = system: B104 rat neuroblastoma cells; assay: BDNF release in-situ ELISA in B104 neuroblastoma cells; type: cell-based; conditions: 5 days
# Source text: […]. Compound 4 alone had no effect on BDNF secretion—(1.5%). […]. Compound 4 alone had no effect on BDNF secretion (−1.5%). […].
# [2] = system: B104 rat neuroblastoma cells; conditions: in-situ ELISA, Geva et al. 2016; cited from earlier work
# [3] = system: female MeCP2 heterozygous (Rett) mice; conditions: 30 mg/kg bid orally, 8 weeks of age
# Method: Clasping is used to assess muscular strength in limb muscles. Hindlimb clasping is measured in mice held by the tail and gently lifted until the front paws just lift off the counter surface. The experimenter observes the legs and determines clasping or splaying of limbs. […] Data are mean±SEM, N-1 two-proportional tests.
# (§1) Dosing commenced when mice were ˜5.5 weeks of age and continued through the end of behavioral testing. Behavioral testing was done at 8 and 12 weeks of age.
# Mice were held by the tail and gently lifted until the front paws just lift off the counter surface. The experimenter observed the legs and determined clasping or splaying of limbs. After testing, animals were placed back into the test or home cage. Percent clasping of the hindlimbs was determined and reported.
# [4] = system: B6.129P2-Mecp2tm2Bird/J (Rett-KO) male mice; conditions: 30 mg/kg bid
# Method: The room temperature was maintained between 20 and 23° C. with a relative humidity maintained around 50%. Chow and water were provided ad libitum for the duration of the study.
# early HD patients = conditions: 45 mg bid
# Source text: Change from baseline in UHDRS TMS gait balances week 26 (A) and Week 52(B) in early HD (baseline TFC 7-13) patients in the PRIDE-HD study.
# Change from baseline in UHDRS TMS gait and balances scale at weeks 26 and 52 in early HD (baseline TFC 7-13).
# [5] = system: Rett disease gene expression signature
# [6] = system: BDNF transcripts (BDNF I, IV, VI, IX) mRNA; conditions: whole brain, Rett mice
# Source text: FIGS. 6A-6C, 7, 8, 9, 10: These figures display mRNA levels of BDNF transcripts measured in the brains of female heterozygous MeCP2 (Rett) mice. […] The relative quantity of the gene target is normalized to the geometric means of the relative quantity of the housekeeping genes APT5B, GAPDH and RPK12A. Relative level of the target gene was then normalized to the WT vehicle group. All data are represented as the mean±SEM. ANOVA followed by Tukey's multiple comparisons test.
# Mice were euthanized via cervical dislocation and decapitated. From 10 mice/treatment group, whole brains were collected, weighed, and then frozen on dry ice. Samples were stored at −80° C. until analysis of brain-derived neurotrophic factor (BDNF).
# Tissues (whole brain) were homogenized, and RNA extracted and quantified. An aliquote was reverse-transcribed into cDNA.
# Up to three independent RT reactions were performed for each RNA sample. qPCR was performed using the primers detailed in Table 5 below.
# Whole brain cDNA prepared from a pooled sample of WT vehicle treated animals was used as calibrator (calibrator is diluted same as sample cDNA) to normalized plate-to-plate variations. Each cDNA sample (diluted 1:10) was assayed in triplicates and the Ct values averaged.
# Relative quantity of the PCR product (relative to the calibrator) was calculated as follows:
# Relative Quantity of Target gene=(PCR EfficiencyTarget)^(Ct caltbrator-Ctsample)
# Geometric mean=(relative quantity of housekeeping gene1*relative quantity of housekeeping gene2*relative quantity of housekeeping gene3)^(1/3)
# Relative Quantity of Target gene Geometric mean of housekeeping genes
# Relative level of target gene was then normalized to the WT vehicle group.
# [7] = system: female MeCP2 heterozygous (Rett) mice; conditions: for Recovery of overall gait features: female Rett mice, 30 mg/kg bid
# Method: FIG. 1: Feature recovery as a measure of the therapeutic drug effect on Mecp2-KO Rett Syndrome model mice. This figure is intended to provide an explanation as to how the data is analyzed in FIGS. 4, 5 and 12.
# Left: “the cloud graph”: Visualization of the control−disease−(disease+treatment) groups relationship in the optimal discrimination feature space.
# The drug treatment effect can be represented as a combination of two components: one along the direction of the “recovery line” (the line connecting the centers of the control (WT) and disease (MECP2-KO) clouds, shown as a thick arrow to the left with diagonal lines on top), and the component orthogonal to (“pointing away” from) that direction shown as an arrow pointing up with parallel lines within. The relative length of the “recovery” arrow with respect to the control-disease distance can then be interpreted as the “recovery due to the drug”, whereas the relative length of the “other effect” (orthogonal with parallel lines inside) arrow represents feature changes that move the disease mice+treatment group away from the control group. The summary of this analysis can be effectively represented as a bar graph (right pane in FIG. 1A) which is typically referred to as the recovery signature.
# Right: “the recovery signature” graph: The bar graph represents the summary of the recovery analysis. The overlap and discrimination probability sum up to 100%. The recovery ranges from […]. The lower the overlap, the better the quality of the disease model, and the higher the discrimination power between the WT and Rett mice groups. The “other behavioral effect” is in the same relative units (relative to the length of the distance between the WT and Rett mice groups).
# The NeuroCube® system is a platform that employs computer vision to detect changes in gait geometry and gait dynamics in rodent models of neurological disorders, pain & neuropathies. This platform is unique for gait testing for the following reasons: • It is completely automated and thus removes any bias or subjectivity • This system captures both gait geometry and gait dynamics (stance, swing, propulsion, etc.)
# Mice were placed in the NeuroCube for a 5 min test. The most dominant of the features collected that define the disease phenotype (symptom descriptors) was identified and ranked. Complex bioinformatic algorithms were employed to calculate the discrimination probability between the WT and the Rett HET MeCP2 mice and detect a test compound's ability to reverse the disease phenotype. Discriminations between mutant and wild type was calculated as well as the recovery of disease features in Rett HET MeCP2 mice treated with the test compound.
# The output of NeuroCube is a set of dozens of behavioral features that are submitted for analysis with machine learning techniques used in bioinformatics. Many of these features are correlated (e.g. rearing counts and supported rearing counts). Therefore, PGI forms statistically independent combinations of the original features (further referred to as de-correlated features) that discriminate between the two groups more effectively.
# Each de-correlated feature extracts information from the whole cluster of the original features, so the new feature space has lower dimensionality. Next, PGI applies a proprietary feature ranking algorithm to score each feature's discrimination power (ability to separate the two groups, e.g. control and disease).
# Ranking is an important part of the analyses because it weighs each feature change by its relevance: if there is a significant change in some irrelevant feature measured for a particular phenotype, the low rank of this feature will automatically reduce the effect of such change in the analyses, so there is no need to resort to the conventional “feature selection” approach and discard information buried in the less informative features.
# [8] = system: cultured cortical neurons from the HD YAC128 mouse model; conditions: Smith-Dijak et al., 2019; cited from earlier work
# [9] = system: female MeCP2 heterozygous (Rett) mice; conditions: 3 mg/kg bid
# Method: as §1
# Mice were placed in the PPI chambers (Med Associates) for a 5 min session of white noise (70 dB) habituation.
# The inter-trial interval was variable with an average of 15 s (range from 10 to 20 s).
# Sigma-2 receptor (S2R), sequence (Q5BJF2 whole entry, species assumed): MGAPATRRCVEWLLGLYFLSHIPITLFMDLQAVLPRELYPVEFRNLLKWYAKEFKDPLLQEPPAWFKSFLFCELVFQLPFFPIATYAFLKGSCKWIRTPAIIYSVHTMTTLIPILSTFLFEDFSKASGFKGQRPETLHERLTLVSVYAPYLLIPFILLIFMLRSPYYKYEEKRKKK
structure (smiles),measurement,setting,value
CCCN1CCC(O)(c2cccc(S(C)(=O)=O)c2)CC1 [Compound 1],S1R fold selectivity (S2R/S1R),Sigma-2 receptor (S2R),>270 fold
same,Increase in BDNF release vs untreated control,[1]; Compound 1 alone 1 μM,12.5%
CCCN1CC[C@@H](c2cccc(S(C)(=O)=O)c2)[C@@H](O)C1 [Compound 4],S1R fold selectivity (S2R/S1R),Sigma-2 receptor (S2R),>35 fold
"CCCN1CCC(c2cccc(S(C)(=O)=O)c2)CC1 [Pridopidine, 4-[3-(methylsulfonyl)phenyl]-1-propyl-piperidine]",BDNF secretion in rat neuroblastoma cells,[2],dose dependent increase
same,Increase in BDNF release vs untreated control,[1]; pridopidine alone 0.001 μM,13.6% and 13.5%
same,Increase in BDNF release vs untreated control,[1]; pridopidine alone 0.005 μM,26%
same,Increase in BDNF release vs untreated control,[1]; pridopidine alone 0.01 μM ([…] in FIG. 17 legend),3.4%
same,Percent clasping of the hindlimbs,[3],zero
same,Percent clasping of the hindlimbs,[3]; listed as pridopidine,0%
same,Recovery of gait deficits,[4]; 6 weeks of age,44%
same,Recovery of gait deficits,[4]; 7 weeks of age,100%
same,"UHDRS TMS gait and balance, Δ from placebo","early HD patients; HD1 (TFC 11-13), Week 26",−0.31
same,"UHDRS TMS gait and balance, Δ from placebo","early HD patients; HD1 (TFC 11-13), Week 52",−0.94
same,"UHDRS TMS gait and balance, Δ from placebo","early HD patients; HD2 (TFC 7-10), Week 26",−0.53
same,"UHDRS TMS gait and balance, Δ from placebo","early HD patients; HD2 (TFC 7-10), Week 52",−0.18
same,"UHDRS TMS gait and balance, Δ from placebo","early HD patients; early HD (TFC 7-13), Week 26",−0.48
same,"UHDRS TMS gait and balance, Δ from placebo","early HD patients; early HD (TFC 7-13), Week 52",−0.41
same,"NES (normalized enrichment score), genes downstream to BDNF","[5]; 30 mg/kg BID, BDNF-TrkB pathway genes",1.752
same,NES (normalized enrichment score),"[5]; cortex, 3 mg/kg BID, geneset Prido Down / Rett Up",1.356
same,NES (normalized enrichment score),"[5]; cortex, 3 mg/kg BID, geneset Prido Up / Rett Down",1.477
same,NES (normalized enrichment score),"[5]; cortex, 30 mg/kg BID, geneset Prido Down / Rett Up",2.081
same,NES (normalized enrichment score),"[5]; cortex, 30 mg/kg BID, geneset Prido Up / Rett Down",−2.631
same,Reversal of Rett gene expression pattern,"[5]; striatum and cortex of Rett mice, GSEA",strongly reverses
same,NES (normalized enrichment score),"[5]; striatum, 3 mg/kg BID, geneset Down with Prido / Up in Rett",2.18
same,NES (normalized enrichment score),"[5]; striatum, 3 mg/kg BID, geneset Up with Prido / Down in Rett",−2.50
same,NES (normalized enrichment score),"[5]; striatum, 30 mg/kg BID, geneset Up with Prido / Down in Rett",−1.77
same,Increase of BDNF IV mRNA levels,[6]; 3 mg/kg bid and 30 mg/kg bid,~30%
same,"Effect on mRNA expression of housekeeping genes ATP5B, GAPDH, RPL13A",[6]; 3 and 30 mg/kg bid,does not affect
same,Effect on BDNF I mRNA levels,[6]; 3 or 30 mg/kg bid,does not affect
same,Effect on BDNF VI mRNA levels,[6]; 3 or 30 mg/kg bid,does not affect
same,"% Recovery 3 mg/kg BID, Body Motion","[7]; 8 weeks, 3 mg/kg BID","81%,"
same,"% Recovery 3 mg/kg BID, Gait","[7]; 8 weeks, 3 mg/kg BID","38%,"
same,"% Recovery 30 mg/kg BID, Body Motion","[7]; 8 weeks, 30 mg/kg BID","84%,"
same,"% Recovery 30 mg/kg BID, Gait","[7]; 8 weeks, 30 mg/kg BID","71%,"
same,"% Recovery 3 mg/kg BID, Body Motion","[7]; 12 weeks, 3 mg/kg BID","65%,"
same,"% Recovery 3 mg/kg BID, Gait","[7]; 12 weeks, 3 mg/kg BID","60%,"
same,"% Recovery 3 mg/kg BID, Paw Positioning","[7]; 12 weeks, 3 mg/kg BID","35%,"
same,"% Recovery 30 mg/kg BID, Body Motion","[7]; 12 weeks, 30 mg/kg BID","59%,"
same,"% Recovery 30 mg/kg BID, Gait","[7]; 12 weeks, 30 mg/kg BID","100%,"
same,"% Recovery 30 mg/kg BID, Paw Positioning","[7]; 12 weeks, 30 mg/kg BID","52%,"
same,Recovery of overall gait features,[7]; 8 weeks of age,45%
same,Recovery of overall gait features,[7]; 12 weeks of age,55%
same,Impaired homeostatic synaptic plasticity (HSP),[8],restores impaired HSP
same,Rescue effect on mean startle response,[9]; 8 weeks of age,~40%
same,Rescue effect on mean startle response,[9]; 12 weeks of age,~50%
